Results on 17 compounds are retold here after article PMC5431086, “The Rational Design of Therapeutic Peptides for Aminopeptidase N using a Substrate-Based Approach” (Scientific Reports, 2017).

Several values for one entry are separate records, joined by “and”; a condition that tells them apart may be missing. Equal values may be shown once. Non-standard residues stand in square brackets, D forms with d. Residues, ends and D or L forms follow the SMILES beside them. No end group written: not given here. Nle = CCCC[C@H](N)C(=O)O

The target of the test is T1, hAPN (aminopeptidase N) (Homo sapiens, UniProt P15144).
T1 construct: human APN ecdomain (residues 66–967) were expressed and purified as previously described; honeybee-melittin signal peptide (N); His6 (C); made in house; host or cells: insect cells
T1 sequence (P15144 66-967): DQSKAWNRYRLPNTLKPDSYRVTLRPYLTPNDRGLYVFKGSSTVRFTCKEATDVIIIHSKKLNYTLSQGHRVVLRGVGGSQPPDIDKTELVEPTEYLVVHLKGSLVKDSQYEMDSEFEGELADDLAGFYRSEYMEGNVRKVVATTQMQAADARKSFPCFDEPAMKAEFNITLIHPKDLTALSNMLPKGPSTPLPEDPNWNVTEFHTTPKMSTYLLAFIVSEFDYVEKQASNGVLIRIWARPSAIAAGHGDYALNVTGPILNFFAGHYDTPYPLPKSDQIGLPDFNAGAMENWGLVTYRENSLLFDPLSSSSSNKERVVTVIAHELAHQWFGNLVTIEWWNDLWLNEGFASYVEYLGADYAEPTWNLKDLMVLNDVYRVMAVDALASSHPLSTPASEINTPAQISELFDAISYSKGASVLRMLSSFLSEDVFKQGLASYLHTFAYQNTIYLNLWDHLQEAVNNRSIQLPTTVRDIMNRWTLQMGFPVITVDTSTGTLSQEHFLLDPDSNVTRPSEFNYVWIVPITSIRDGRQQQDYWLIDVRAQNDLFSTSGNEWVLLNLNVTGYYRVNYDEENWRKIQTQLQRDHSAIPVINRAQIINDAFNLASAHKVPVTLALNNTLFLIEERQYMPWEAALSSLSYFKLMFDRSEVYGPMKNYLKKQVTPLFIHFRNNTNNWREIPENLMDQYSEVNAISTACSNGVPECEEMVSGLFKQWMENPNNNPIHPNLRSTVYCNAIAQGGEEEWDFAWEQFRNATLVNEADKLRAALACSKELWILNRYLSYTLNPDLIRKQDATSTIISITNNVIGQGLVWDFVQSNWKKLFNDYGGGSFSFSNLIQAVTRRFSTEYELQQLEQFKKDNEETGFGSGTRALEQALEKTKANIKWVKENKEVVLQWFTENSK
Briefly: Inhibition of cleavage of fluorogenic alanine substrate (H-Ala-AMC) by APN. It counts as biochemical. To be noted: 0.1 μM APN, 100 μM H-Ala-AMC, pH 7.2, 37 °C, triplicate. Here is the method: Five-residue long peptides containing P1–P4′ residues from primary cleavages in the library were synthesized and tested for their ability to prevent the cleavage of a fluorogenic alanine substrate by hAPN.
The peptides used in this study were custom synthesized by AAPPTEC of Louisville, KY using traditional Fmoc solid-phase peptide synthesis. All of the peptides were purified and characterized by AAPPTEC. […] Inhibition assays were performed in triplicate in a 100 mM Tris pH 7.2, Brij 35 0.0002% w/v assay buffer at 37 °C with 0.1 μM APN and 100 μM H-Ala-AMC (fluorophore). Values were recorded by Infinite pro plate reader every 2 minutes for 30 minutes with laser parameters set for excitation at 355 nm and emission at 460 nm.
What is called IC50 is the concentration that gives 50% inhibition. High values mean weaker potency in that assay, low ones greater potency in that assay. In turn, `C[C@H](NC(=O)[C@@H](N)CC(=O)O)C(=O)N[C@@H](CCCNC(=N)N)C(=O)N[C@@H](CCCCN)C(=O)O` [DARK] (H-DARK-OH) returned an IC50 of over 500 µM.
With `C[C@@H](O)[C@H](NC(=O)[C@H](CO)NC(=O)[C@@H](N)CC(=O)O)C(=O)N[C@@H](Cc1ccccc1)C(=O)O` [DSTF] (H-DSTF-OH), the IC50 is over 500 µM.
`N[C@@H](Cc1c[nH]cn1)C(=O)N[C@@H](CO)C(=O)N1CCC[C@H]1C(=O)N[C@@H](Cc1c[nH]c2ccccc12)C(=O)O` [HSPW] (H-HSPW-OH; N-terminus and C-terminus assumed): the IC50 is 43 µM and 43.3 µM.
In turn, `CCCC[C@H](N)C(=O)N[C@@H](CC(=O)O)C(=O)N[C@@H](CCC(N)=O)C(=O)N[C@H](C(=O)N[C@@H](Cc1ccc(O)cc1)C(=O)O)[C@@H](C)CC` [nDQIY] (H-[Nle]DQIY-OH) showed an IC50 of over 500 µM.
`CCCC[C@H](N)C(=O)N[C@@H](Cc1c[nH]cn1)C(=O)N[C@@H](CO)C(=O)N1CCC[C@H]1C(=O)N[C@@H](Cc1c[nH]c2ccccc12)C(=O)O` [nHSPW] (H-[Nle]HSPW-OH) displayed an IC50 of 6.5 ± 0.5 µM.
ADARK [ADARK] gave an IC50 of over 500 µM.
Compound AHLFN [AHLFN] came in with an IC50 of over 500 µM.
As for AHSPW [AHSPW], the figure is 9.4 ± 1.1 µM; as for AHSTF [AHSTF], over 500 µM.
As to EHSPW [EHSPW], the IC50 amounted to 115 ± 17.2 µM.
The figure for EPKVA [EPKVA] is over 500 µM; for FDWWG [FDWWG] it is over 500 µM.
As for FSLSK [FSLSK], the figure is over 500 µM.
On to FYLRE [FYLRE], for which the IC50 is over 500 µM.
In turn, INDFL [INDFL] had an IC50 of over 500 µM.
The figure for LDSTF [LDSTF] is over 500 µM; for LHSPW [LHSPW] it is 10.6 ± 1.2 µM.
